According to ChEMBL document CHEMBL1150064, “Scoparic acid A, a beta-glucuronidase inhibitor from Scoparia dulcis” (J Nat Prod, 1992):

T1: Beta-glucuronidase (Bos taurus, UniProt A3KMY8)
T1 sequence (A3KMY8 whole entry): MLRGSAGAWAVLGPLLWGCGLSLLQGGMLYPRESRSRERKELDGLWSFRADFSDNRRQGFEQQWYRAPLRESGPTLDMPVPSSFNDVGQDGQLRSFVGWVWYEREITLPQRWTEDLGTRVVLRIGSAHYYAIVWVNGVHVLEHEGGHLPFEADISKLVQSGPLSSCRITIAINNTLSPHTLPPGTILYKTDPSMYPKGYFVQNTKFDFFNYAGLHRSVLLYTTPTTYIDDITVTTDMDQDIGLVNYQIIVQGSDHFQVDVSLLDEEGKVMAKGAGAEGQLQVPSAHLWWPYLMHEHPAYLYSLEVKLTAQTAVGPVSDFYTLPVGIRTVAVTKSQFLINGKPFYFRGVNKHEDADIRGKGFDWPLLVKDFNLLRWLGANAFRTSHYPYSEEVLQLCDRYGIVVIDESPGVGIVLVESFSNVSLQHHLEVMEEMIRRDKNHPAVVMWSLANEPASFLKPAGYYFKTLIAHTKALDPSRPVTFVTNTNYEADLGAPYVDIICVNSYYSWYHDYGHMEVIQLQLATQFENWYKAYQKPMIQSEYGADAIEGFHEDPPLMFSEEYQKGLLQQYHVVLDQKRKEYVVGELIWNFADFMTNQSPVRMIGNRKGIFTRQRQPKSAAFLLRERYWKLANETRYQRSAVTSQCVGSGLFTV

T2: Beta-glucuronidase (Bos taurus) (UniProt A3KMY8)
T2 sequence (whole entry): T1 sequence (A3KMY8 whole entry)

B1: Beta-glucuronidase (Bos taurus), A3KMY8 (protein)
chain: T1 sequence (A3KMY8 whole entry)

Experiments:
Beta-glucuronidase = target: T1, Beta-glucuronidase; assay: Inhibition of bovine beta-glucuronidase
[1] = target: T2, Beta-glucuronidase (Bos taurus); assay: Inhibition of bovine beta-glucuroniase assessed as decrease in enzyme inhibition in presence of BSA; conditions: concentration not given here
[2] = substrate: C=C1C[C@@H](OC(=O)c2ccccc2)[C@@H]2[C@](C)(CCC[C@@]2(C)C(=O)O)[C@@H]1CC/C(C)=C/CO; assay: Activity at bovine beta-glucuroniase by Lineweaver-Burke plot; conditions: Bos taurus

| Molecule | IC50 (Beta-glucuronidase) | inhibition [1] | Km [2] |
| --- | --- | --- | --- |
| C=C1C[C@@H](OC(=O)c2ccccc2)[C@@H]2[C@](C)(CCC[C@@]2(C)C(=O)O)[C@@H]1CC/C(C)=C/CO [SCOPARIC ACID A] | 6.8 µM | 5% | – |
| C=C1C[C@@H](OC(=O)c2ccccc2)[C@@H]2[C@](C)(CCC[C@@]2(C)C(=O)O)[C@@H]1CCC(C)=O [SCOPARIC ACID B] | > 100 µM | – | – |
| C=C(C=O)CC[C@@H]1C(=C)C[C@@H](OC(=O)c2ccccc2)[C@@H]2[C@]1(C)CCC[C@@]2(C)C(=O)O [SCOPARIC ACID C] | 10 µM | – | – |
| B1 | – | – | 14.3 mM |
